# Entries after “also recorded” stand apart in the source; their conditions may differ.
# Tests used:
# sperm [1] = assay: Acrosome reaction of sperm by CD38 (ConA-FITC, A23187); format: cell-based; details: for acrosome reaction of CD38-treated sperm with inhibitor: inhibitor of downstream signaling of CD31
# Procedure: To examine the acrosome reaction of sperm, ConA-FITC binding specifically to the acrosome of sperm was used. The isolated sperm were allowed to react with purified CD38 at 37° C. for 2 hours, and then were treated for 40 min with calcium ionophore A23187 that increases calcium in sperm to induce the acrosome reaction of sperm. Then, the sperm were placed on a glass slide, and the acrosome reaction of the sperm was examined with a fluorescence microscope.
# sperm [2] = assay: Test for motility of sperm by CD38; format: cell-based; details: for CD38-induced increase in motility of sperm with inhibitor: sperm treated with inhibitor, then CD38; for motility of sperm: sperm treated with CD38
# Procedure: The relationship between CD31 activation by CD38 and sperm motility was analyzed. […] Also, it was seen that, when sperm were treated with the ERK1/2 inhibitor PD98059 and the ras-GTP inhibitor (FTI-277) and then treated with CD38, the increase in the motility of the sperm was inhibited.
# CD31 = target: T1, CD31 (Homo sapiens, UniProt P16284); assay: Test for activation of CD31 in sperm by CD38 (immunoprecipitation, Western blot); format: cell-based; details: sperm treated with 600 ng/ml CD38 for 0, 15, 30 min
# T1 construct: endogenous in cells; host or cells: isolated sperm
# Procedure: In order to test the activation of CD31 in sperm, the isolated sperm were treated with 600 ng/ml CD38 for each of 0 min, 15 min and 30 min, and then buffer was added thereto to lyse the cells. Also, CD31 antibody was used to perform immunoprecipitation, and Western blot was performed using each antibody in order to examine the phosphorylation of CD31 and to examine interacting proteins.
# sperm [3] = assay: Formation of cGDPR, cyclic ADP-ribose and NAADP in prostasome-bound or -unbound sperm; format: cell-based, human
# Procedure: The isolated sperm were diluted with a weakly alkaline buffer or fusion buffer (150 mM NaCl, 1 mM CaCl2, 1 mM MgCl2, 5 mM glucose with either 2 mM Hepes (pH 8.0) or 20 mM MES (pH 5.0, fusion buffer)) containing 0.32 M sucrose. The dilution was mixed with prostasome such that the ratio of prostasome:sperm protein was 2:1. The mixture was allowed to react at 37° C. for 15 minutes. The reaction product was centrifuged at 600×g for 10 minutes, and the precipitate was collected, resuspended in BWW buffer and used in the experiment. […] Also, the binding of prostasome was the highest at a pH of 5.0 similar to the internal acidity of the female vagina and decreased toward alkaline pH values. […] In order to examine the formation of cyclic ADP-ribose and nicotinic acid adenine dinucletide phosphate which are typical metabolites of CD38, the sperm to which prostasome was unbound or bound was treated with progesterone, after which the level of each molecule in the sperm was measured at varying points of time.
# sperm [4] = assay: Measurement of calcium in sperm cells (fluo-3, confocal microscopy); format: cell-based, human
# Procedure: In order to measure intracellular calcium release, the sperm suspension pretreated with fluo-3 (molecular probe, USA) was titrated in a confocal dish (SPL, Seoul, Korea) coated with poly-L-lysine (Sigma-Aldrich, USA) and was allowed to react in a CO2 incubator for 20 minutes to attach the cells. Calcium in the cells was measured by a confocal microscopy system (Nikon) using the method of Tsien et al. (Tsien et al., Nature 295, 68-71 (1982)).
# sperm [5] = assay: Test for sperm motility by prostasome (CASA); format: cell-based, human; details: prostasome-bound sperm treated with progesterone
# Procedure: Sperm motility was measured using a CASA (computer assisted sperm analysis) system (IVOS, Hamilton Thorne Biosciences, USA). The sperm suspension was titrated onto a sperm analysis slide (2X-CEL, Hamilton Thorne Biosciences, USA) having a depth of 20 μm and was automatically photographed using a 4× magnification lens, followed by analysis.
# mouse oocytes = assay: In vitro fertilization test; format: cell-based, mice; details: prostasome-bound sperm pretreated with antagonist
# Procedure: In vitro fertilization was performed using a modification of the method of Ren et al. (Ren et al., Nature 413, 603-609 (2001)). 10-12-week-old mice were injected with pregnant mare serum gonadotropin (PMSG) (5 IU; Sigma-Aldrich), and after 48 hours, injected with human chorionic gonadotropin (hCG) (5 IU; Sigma-Aldrich). 14 hours after the final injection, the uterine tube was removed and perfused with IVF medium (Medicult, USA), and the released oocytes were collected using a low-magnification microscope. In order to collect sperm, the epididymis of male mice was removed and cut into small pieces with scissors in the same medium, and swum-out sperm were collected. The number of cells in the sperm was measured, and the sperm were used in the test.
compound,measurement,setting,value
CN(C)S(=O)(=O)c1ccc2c(c1)/C(=C/c1cc3c([nH]1)CCCC3)C(=O)N2 [Su6656],acrosome reaction of CD38-treated sperm with inhibitor,sperm [1],inhibited
COC(=O)[C@H](CCSC)NC(=O)c1ccc(NC[C@@H](N)CS)cc1-c1ccccc1 [FTI-277],CD38-induced increase in motility of sperm with inhibitor,sperm [2],inhibited
"CD38: purified water-soluble CD38 (sCD38), ADP-ribosyl cyclase, a cell membrane protein",motility of sperm,sperm [2],significantly increased
same,motility of sperm,sperm [2]; listed as sCD38,increased
same,acrosome reaction of sperm,"sperm [1]; sperm with purified CD38 at 37° C. for 2 hours, then A23187 40 min",significantly increased
same,phosphorylation of CD31,CD31,increased with time; also recorded: increased over time
COc1cccc(-c2cc(=O)c3ccccc3o2)c1N [PD98059],CD38-induced increase in motility of sperm with inhibitor,sperm [2],inhibited
same,acrosome reaction of CD38-treated sperm with inhibitor,sperm [1],inhibited
CC(=O)[C@H]1CC[C@H]2[C@@H]3CCC4=CC(=O)CC[C@]4(C)[C@H]3CC[C@]12C [progesterone],formation of nicotinic acid adenine dinucletide phosphate in sperm,sperm [3]; prostasome-bound or -unbound sperm treated with progesterone,not formed
same,synthesis of cyclic ADP-ribose in sperm,"sperm [3]; prostasome-bound sperm treated with progesterone, within several seconds",rapidly increased
same,intracellular calcium release by progesterone,sperm [4]; prostasome-bound sperm,intracellular calcium release immediately occurred
same,intracellular calcium reaction by progesterone,sperm [4]; prostasome-unbound sperm,immediate calcium reaction
same,increase of sperm motility,sperm [5],about 2 times
N=c1c2nc(Br)n3c2ncn1C1OC(COP(=O)(O)OP(=O)(O)OCC2OC3C(O)C2O)C(O)C1O (stereo not drawn) [8-Br-cADPR],reduction of fertilizing ability,mouse oocytes,about 70%
same,pattern of a continuous increase in calcium by progesterone,"sperm [4]; prostasome-bound sperm pretreated with antagonist, then progesterone",inhibited
